Test results as given in patent publication US4316904A, “Indolopyrone tetrazoles and carboxamidotetrazoles having antiallergic activity” (priority 1979, dated 1982).

System: Reaginic Passive Cutaneous Anaphylaxis (PCA)
Test: Rat Reaginic Passive Cutaneous Anaphylaxis (PCA)
Type: in vivo
Details: for inhibition in vivo at 1 mg/kg / inhibition in vivo at 5 mg/kg: ip, read-out: percent inhibition (PCA test); for inhibition (PCA test), oral: orally
Protocol: The compounds of the invention are new chemical substances of value as pharmacological agents which prevent the allergic response in mammals by inhibition of the release of such allergic mediators, as histamine. The assay by which this utility was established is carried out as follows.
Rat Reaginic Passive Cutaneous Anaphylaxis (PCA)
The PCA test (D. J. Herzig, P. R. Schumann, E. J. Kusner, L. Robichaud, R. E. Giles, B. Dubnick, M. von Strandtmann, S. Klutchko, M. Cohen, and J. Shavel, Jr., "Immunopharmacology", M. E. Rosenthale and H. C. Mansmann, Eds., Spectrum Publications, Inc., New York, N.Y., 1975, pp. 103-124) involved immunization of rats with 1 mg of ovalbumin intramuscularly and approximately 10^10 B. pertussis organisms as pertussis vaccine, intraperitoneally. Fourteen days later, the rats were bled and the serum was prepared. Suitable dilutions of antiserum were injected intradermally at various sites on the back of rats 48 h before an intravenous injection of 1 mg of ovalbumin in 1 ml of physiological saline and 0.25% Evans Blue. Thirty minutes later the animals were killed in ether, the dorsal skin was reflected, and the mean orthogonal diameter of the wheal was measured. For oral or intraperitoneal dosing, the drugs were suspended in 1% gum tragacanth in physiological saline and given 10-15 min before intravenous antigen challenge. For intravenous dosing, the compounds were dissolved in the saline/ovalbumin/Evans Blue solution and given with the antigen. If necessary, the compounds were first dissolved in a slight molar excess of sodium bicarbonate and then diluted into the antigen solution. Groups of five animals were used for all dose levels and control groups.
To quantitate the PCA test, the mean diameter of each wheal spot was graphed as a function of the relative antiserum concentration. The line, fitted by the least-squares equation, was extrapolated to the value at "zero" antiserum concentration (base value). The following equation was then used to calculate the percent inhibition: [formula]
The statistical significance of the results was determined by Student's t test (p≤0.05). An inhibition of 15% was significant. The test results obtained for the compounds of the invention as well as for the corresponding acids (U.S. Pat. No. 4,028,383) are given as percent inhibition in the following table.

[1] = 10-15 min before intravenous antigen challenge
[2] = 5 mg/kg, 10-15 min before intravenous antigen challenge

| SMILES | inhibition in vivo at 1 mg/kg [1] [%] | inhibition in vivo at 5 mg/kg [2] [%] | also measured |
| --- | --- | --- | --- |
| Cn1c2ccc([N+](=O)[O-])cc2c2oc(C(=O)Nc3nnn[nH]3)cc(=O)c21 [8-NO2 /CH3 C, 4,5-Dihydro-5-methyl-8-nitro-4-oxo-N-1H-tetrazol-5-ylpyrano[3,2-b]indole-2-carboxamide] | 42 | 100 | – |
| O=C(O)c1cc(=O)c2c(o1)c1ccccc1n2-c1ccccc1 [H/.phi. A, reference compound] | 13 | – | – |
| Cn1c2ccccc2c2oc(C(=O)Nc3nnn[nH]3)cc(=O)c21 [H/CH3 C, 4,5-Dihydro-5-methyl-4-oxo-N-1H-tetrazol-5-ylpyrano[3,2-b]indole-2-carboxamide] | 28 | 100 | – |
| Cn1c2ccc(Cl)cc2c2oc(-c3nnn[nH]3)cc(=O)c21 [8-Cl/CH3 T, 8-Chloro-5-methyl-2-(1H-tetrazol-5-yl)pyrano[3,2-b]indol-4(5H)-one] | 46 | 100 | inhibition (PCA test), oral (5 mg/kg): 33% |
| Cc1ccc2c(c1)c1oc(C(=O)O)cc(=O)c1n2C [8-CH3 /CH3 A, 4,5-dihydro-5,8-dimethyl-4-oxopyrano[3,2-b]indole-2-carboxylic acid, reference compound] | 18 | – | – |
| O=C(Nc1nn[nH]n1)c1cc(=O)c2c(o1)c1ccccc1n2-c1ccccc1 [H/.phi. C] | – | – | percent inhibition (PCA test) (i.p., 5 mg/kg, 10-15 min before intravenous antigen challenge): Inac. |
| Cn1c2c([N+](=O)[O-])cc([N+](=O)[O-])cc2c2oc(C(=O)Nc3nnn[nH]3)cc(=O)c21 [6,8-di-NO2 /CH3 C, 4,5-Dihydro-5-methyl-6,8-dinitro-4-oxo-N-1H-tetrazol-5-ylpyrano[3,2-b]indole-2-carboxamide] | – | 48 | – |
| Cn1c2c([N+](=O)[O-])cc([N+](=O)[O-])cc2c2oc(C(=O)O)cc(=O)c21 [6,8-di-NO2 /CH3 A, 4,5-Dihydro-5-methyl-6,8-dinitro-4-oxopyrano[3,2-b]indole-2-carboxylic acid, reference compound] | – | 0 | – |
| Cn1c2ccccc2c2oc(C(=O)O)cc(=O)c21 [H/CH3 A, 4,5-dihydro-5-methyl-4-oxopyrano[3,2-b]indole-2-carboxylic acid, reference compound] | 30 | 100 | – |
| O=c1cc(-c2nnn[nH]2)oc2c3ccccc3n(-c3ccccc3)c12 [H/.phi. T, 5-Phenyl-2(1H-tetrazol-5-yl)pyrano[3,2-b]indol-4(5H)-one] | 61 | 100 | inhibition (PCA test), intravenous (intravenously, 0.1 mg/kg, given with the antigen): 28%; inhibition (PCA test), oral (2 mg/kg): 32% |
| CCn1c2ccccc2c2oc(C(=O)Nc3nnn[nH]3)cc(=O)c21 [H/C2 H5 C, 5-Ethyl-4,5-dihydro-4-oxo-N-1H-tetrazol-5-ylpyrano[3,2-b]indole-2-carboxamide] | 12 | 100 | – |
| Cn1c2ccc([N+](=O)[O-])cc2c2oc(C(=O)O)cc(=O)c21 [8-NO2 /CH3 A, 4,5-Dihydro-5-methyl-8-nitro-4-oxopyrano-[3,2-b]indole-2-carboxylic acid, reference compound] | 1 | 100 | – |
| Cc1ccc2c(c1)c1oc(-c3nnn[nH]3)cc(=O)c1n2C [8-CH3 /CH3 T, 5,8-Dimethyl-2-(1H-tetrazol-5-yl)pyrano[3,2-b]indol-4(5H)-one] | 25 | 100 | inhibition (PCA test), oral (5 mg/kg): 56% |
| Cn1c2ccc(Cl)cc2c2oc(C(=O)O)cc(=O)c21 [8-Cl/CH3 A, 8-chloro-4,5-dihydro-5-methyl-4-oxopyrano[3,2-b]indole-2-carboxylic acid, reference compound] | – | 23 | – |
| CCn1c2ccccc2c2oc(-c3nnn[nH]3)cc(=O)c21 [H/C2 H5 T, 5-Ethyl-2-(1H-tetrazol-5-yl)pyrano[3,2-b]indol-4(5H)-one] | 100 | 100 | inhibition (PCA test), oral (5 mg/kg): 70% |
| Cn1c2ccc(Cl)cc2c2oc(C(=O)Nc3nnn[nH]3)cc(=O)c21 [8-Cl/CH3 C, 8-Chloro-4,5-dihydro-5-methyl-4-oxo-N-1H-tetrazol-5-ylpyrano[3,2-b]indole-2-carboxamide] | 38 | 100 | – |
| CCn1c2ccccc2c2oc(C(=O)O)cc(=O)c21 [H/C2 H5 A, 5-ethyl-4,5-dihydro-4-oxopyrano[3,2-b]indole-2-carboxylic acid, reference compound] | 0 | – | – |
| Cn1c2ccccc2c2oc(-c3nnn[nH]3)cc(=O)c21 [H/CH3 T, 5-Methyl-2(1H-tetrazol-5-yl)pyrano[3,2-b]indol-4(5H)-one] | 87 | 100 | inhibition (PCA test), oral (2 mg/kg): 12%; inhibition (PCA test), oral (5 mg/kg): 39% |
| Cc1ccc2c(c1)c1oc(C(=O)Nc3nnn[nH]3)cc(=O)c1n2C [8-CH3 /CH3 C, 4,5-Dihydro-5,8-dimethyl-4-oxo-N-1H-tetrazol-5-ylpyrano[3,2-b]indole-2-carboxamide] | 33 | 100 | – |
